Holding throughout (assay type): in vivo, human
Data set [1] concerns NPM1-mutated AML without FLT3 internal tandem duplication mutations. The experiment in a line: Dactinomycin single-agent treatment of a patient with NPM1-mutated AML (response). How it is done: (§1) A patient with NPM1-mutated AML without FLT3 internal tandem duplication mutations was treated with dactinomycin. Because dactinomycin lacks cardiotoxicity, a patient was selected for whom intensive chemotherapy was not appropriate owing to a low left ventricular ejection fraction (35%). […] Therefore, with the patient's consent, dactinomycin was administered as an off-label single agent (approved by the institutional review board at Perugia Hospital), at a dose of 12.5 μg per kilogram of body weight per day for 5 consecutive days, as recommended for low-risk gestational trophoblastic tumors. […] Four more cycles were administered for a total of six cycles, at intervals of 3 to 4 weeks.
The progressive decrease in NPM1 mutant transcripts (until the achievement of negativity for minimal residual disease) is reminiscent of dactinomycin-induced normalization of serum levels of human chorionic gonadotropin in patients with gestational trophoblastic tumors.

Data set [2] can be described thus: Adverse events and hematologic toxic effects during dactinomycin treatment of the patient. As to the method: as §1
The number of days with a hemoglobin level of less than 8 g per deciliter, severe thrombocytopenia (a platelet count of <20,000 per cubic millimeter), and severe neutropenia (a neutrophil count of <500 per cubic millimeter) are reported for cycles 1 through 6. A total of 8 units of red cells and 4 units of platelets were transfused during cycle 1, and 4 units of red cells and 1 unit of platelets were transfused during cycle 2.

The test system of data set [3] is refractory or relapsed NPM1-mutated AML. The experiment in a line: Dactinomycin treatment of six additional patients with refractory or relapsed NPM1-mutated AML. To be noted: 15.0 μg per kilogram per day for 5 consecutive days, cycles. As to the method:
Six additional patients with refractory or relapsed NPM1-mutated AML were treated with cycles of dactinomycin at a dose of 15.0 μg per kilogram per day for 5 consecutive days.

[4] abbreviates: after two cycles of dactinomycin.

Each structure is given as a SMILES string. Entries after “also recorded” stand apart in the source; their conditions may differ. *1 amine or outer side, *2 acyl side, *3 side chain or, on linkers, in order; H or OH if unused. Where a SMILES comes first, the peptide text is derived from it. Bridges are numbered along the chain shown (N, C = ends). Roman numbers before positions name the chains, in order. [ ]: non-standard residue; d: D form. Actinocin(9to1) = Cc1c2oc3c(C)ccc(C(=O)[*:1])c3nc-2c(C(=O)[*:2])c(N)c1=O; NMeV = CN[CH](C(=O)O)C(C)C; Sar = CNCC(=O)O

`Cc1c2oc3c(C)ccc(C(=O)NC4C(=O)NC(C(C)C)C(=O)N5CCCC5C(=O)N(C)CC(=O)N(C)C(C(C)C)C(=O)OC4C)c3nc-2c(C(=O)NC2C(=O)NC(C(C)C)C(=O)N3CCCC3C(=O)N(C)CC(=O)N(C)C(C(C)C)C(=O)OC2C)c(N)c1=O` (stereo not shown) [dactinomycin, 2-amino-N,N′-bis(hexadecahydro-2,5,9-trimethyl-6,13-bis(1-methylethyl)-1,4,7,11,14-pentaoxo-1H-pyrrolo(2,1-I)(1,4,7,10,13)oxatetra-azacyclohexadecin-10-yl)-4,6-dimethyl-3-oxo-3H-phenoxazine-1,9-dicarboxamide] (I: TVP[Sar][NMeV] / II: TVP[Sar][NMeV]; ester I:1-I:C, II:1-II:C; linker I:N-II:N via Actinocin(9to1); configuration not given here): the “Morphologic and immunohistochemical (hematologic) complete remission” value in data set [1] (12.5 μg per kilogram per day for 5 consecutive days per cycle, patient) is “hematologic complete remission; also recorded: complete remission was achieved after two cycles of therapy”. In addition, the “Immunostaining with anti-NPM1 monoclonal antibody of bone marrow cells” value in data set [1] (setting [4]) is recorded as “nucleus-restricted positivity for NPM1”. Moreover, in data set [1] (setting [4]), the “Leukemic blasts in bone marrow aspirate (MGG staining)” value is given as “less than 5%”. In data set [1] (bone marrow samples, 12.5 μg/kg/day x 5 days per cycle), the “Molecular complete remission / negativity for minimal residual disease (quantitative RT-PCR for mutant copies of NPM1)” value is “Negativity for minimal residual disease was achieved after the fourth cycle; also recorded: molecular complete remission after the fourth cycle”. Moreover, the “Mutant copies of NPM1 in bone marrow samples (RT-PCR, copies per 100 copies of Abl)” value in data set [1] (during dactinomycin treatment) is “progressive reduction in copies”. In data set [1] (six cycles at intervals of 3 to 4 weeks), the “Duration of morphologic and molecular complete remission” value turned out to be 14 months. For the same compound, in data set [2] (after cycle 2 (cycles 3 through 6)), the “Need for red-cell or platelet transfusions” value is listed as “no need for blood transfusions; also recorded: No red-cell or platelet transfusions were necessary”. Moreover, the “Number of days with Hb <8 g/dl” value in data set [2] (cycle 1) came out at 3 days; in data set [2] (cycle 2), 3 days; in data set [2] (cycle 3) it was 0 days; in data set [2] (cycle 4), 0 days; in data set [2] (cycle 5) it was 0 days; in data set [2] (cycle 6) it was 0 days. Further, the “Number of days with PLT <20000/mm^3” value in data set [2] (cycle 1) was found to be 13 days; in data set [2] (cycle 2), 2 days; in data set [2] (cycle 3), 0 days; in data set [2] (cycle 4) it was 0 days; in data set [2] (cycle 5), 0 days; in data set [2] (cycle 6) it was 0 days. The “Number of days with PMN <500/mm^3” value in data set [2] (cycle 1) came to 26 days; in data set [2] (cycle 2), 6 days; in data set [2] (cycle 3), 4 days; in data set [2] (cycle 4) it was 4 days; in data set [2] (cycle 5), 4 days; in data set [2] (cycle 6) it was 3 days. The Platelets transfused in data set [2] (cycle 1) is 4 units; in data set [2] (cycle 2), 1 unit. The Red cells transfused in data set [2] (cycle 1) came to 8 units; in data set [2] (cycle 2), 4 units. The Skin adverse event result in data set [2] (during cycle 2) is reported as “superficial skin erosions”. Moreover, the “Febrile neutropenia and thrombocytopenia (adverse event grade)” value in data set [2] (during cycles 1 and 2) is reported as 4 grade. Besides, in data set [2] (during cycles 1 through 3), the “Oral mucositis (adverse event grade)” value came to 2 grade. Also, in data set [3], the “Hematologic complete remission (patients of six treated)” value was “achieved in two patients”.
Consider `Nc1ncn([C@@H]2O[C@H](CO)[C@@H](O)[C@H]2O)c(=O)n1` [azacitidine], for which, in data set [1] (initial single cycle of azacitidine, before dactinomycin), the “Course of leukemia after prior therapy” value is “Leukemia had progressed”.
